# Target: T1, MMP-12 (Homo sapiens, UniProt P39900)
# T1 construct: In regard to MMP-12, catalytic domain(^100Phe˜^263Gly) was amplified with RT-PCR; His-tag; enterokinase digestion-site; made in house
# Assay: Assay for inhibitory activities on MMPs (fluorogenic MOCAc peptide substrate): MMP-12
# Type: biochemical
# Details: catalytic domain 100Phe-263Gly
# Description: In regard to MMP-12, catalytic domain(^100Phe˜^263Gly) was amplified with RT-PCR from Human Placenta Total RNA. This was cloned in Escherichia. coli expression vector pTrc99AHE inserted with His-tag sequence and enterokinase digestion-site, induced and expressed by IPTG (Isopropyl-β-D-thiogalactopyranoside) and expressed in a insoluble fraction. Isolation of MMP-12 from an insoluble fraction was carried out by dissolving in modifier (6M urea) by a usual method and purification with metal chelate chromatography (Ni Chelateing Sepharose). And then removing modifier (6M urea) with dialysis and refolding of the enzyme spontaneously gave activated MMP-12.
# (§1) The enzymatic activity on MMPs was analyzed by the method described in “C. Graham Knight, Frances Willenbrock and Gillian Murphy: A novel coumarin-labelled peptide for sensitive continuous assays of the matrix metalloproteinases: FEBS LETT., 296, (1992), 263-266”. The substrate: MOCAc-Pro-Leu-Gly-Leu-A2Pr(DNP)-Ala-Arg-NH2 was purchased from Peptide Institute, Inc., Osaka, Japan. The measurement of the inhibitory activities (IC50) was carried out by the following four methods; • (A) Reaction with substrate, enzyme (MMPs) and inhibitor • (B) Reaction with substrate and inhibitor, without enzyme • (C) Reaction with substrate and enzyme (MMPs), without inhibitor • (D) Reaction with substrate only IC50 values were calculated by using the following formula and each fluorescence values of above four methods (A to D).
# (§2) The value of inhibitory activity against MMP-2, MMP-8, MMP-9, MMP-12, and MMP-13 measured by above mentioned methods are shown in Table 36, 37, 38, 39, and 40 respectively.
# T1 sequence (P39900 100-263): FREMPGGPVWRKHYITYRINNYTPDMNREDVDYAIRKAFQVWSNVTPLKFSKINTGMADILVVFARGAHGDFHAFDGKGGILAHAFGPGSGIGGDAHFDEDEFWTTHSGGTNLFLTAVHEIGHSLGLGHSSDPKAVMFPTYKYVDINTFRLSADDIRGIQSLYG
row,Compound,IC50
1,CSc1ccc(-c2cc(-c3ccc(S(=O)(=O)N[C@@H](CC(C)C)C(=O)O)cc3)no2)cc1 [Example C-62],0.00029 µM
2,Cc1ccc(-c2cc(-c3ccc(S(=O)(=O)N[C@@H](C(=O)O)C(C)(C)C)cc3)no2)cc1 [Example C-109],0.000951 µM
3,CC(C)[C@@H](NS(=O)(=O)c1ccc(-c2cc(-c3ccc(F)c(F)c3)on2)cc1)C(=O)O [Example C-49],0.000834 µM
4,CC(C)C[C@H](NS(=O)(=O)c1ccc(-c2cc(-c3ccc(F)c(F)c3)no2)cc1)C(=O)O [Example A-84],0.00069 µM
5,CC(C)C[C@H](NS(=O)(=O)c1ccc(-c2cc(-c3ccc(Br)cc3)no2)cc1)C(=O)O [Example A-66],0.00043 µM
6,CC(C)C[C@H](NS(=O)(=O)c1ccc(-c2cc(-c3ccc(C(F)(F)F)cc3)no2)cc1)C(=O)O [Example A-63],0.000584 µM
7,CCC(C)[C@H](NS(=O)(=O)c1ccc(-c2cc(-c3ccc(Br)cc3)on2)cc1)C(=O)O (stereo partly drawn) [Example C-103],0.000177 µM
8,CCc1ccc(-c2cc(-c3ccc(S(=O)(=O)N[C@@H](CC(C)C)C(=O)O)cc3)no2)cc1 [Example C-56],0.000289 µM
9,CC(C)C[C@H](NS(=O)(=O)c1ccc(-c2cc(-c3ccc(C(F)(F)F)cc3)on2)cc1)C(=O)O [Example C-73],0.000251 µM
10,COc1ccc(-c2cc(-c3ccc(S(=O)(=O)N[C@@H](C(=O)O)C(C)C)cc3)on2)cc1F [Example A-38],0.000908 µM
11,CC(C)[C@@H](NS(=O)(=O)c1ccc(-c2cc(-c3ccc(Cl)c(F)c3)no2)cc1)C(=O)O [Example A-40],0.000861 µM
12,CC(C)[C@H](NS(=O)(=O)c1ccc(-c2cc(-c3ccc(C(F)(F)F)cc3)on2)cc1)C(=O)O [Example C-28],0.000209 µM
13,Cc1ccc(-c2cc(-c3ccc(S(=O)(=O)N[C@@H](CC(C)C)C(=O)O)cc3)on2)cc1 [Example A-61],0.00081 µM
14,CC(C)C[C@H](NS(=O)(=O)c1ccc(-c2cc(-c3ccc(Cl)cc3)no2)cc1)C(=O)O [Example A-65],0.000492 µM
15,Cc1ccc(-c2cc(-c3ccc(S(=O)(=O)N[C@H](C(=O)O)C(C)C)cc3)no2)cc1F [Example C-39],0.000238 µM
16,CCC(C)[C@H](NS(=O)(=O)c1ccc(-c2cc(-c3ccc(C)c(F)c3)on2)cc1)C(=O)O (stereo partly drawn) [Example C-105],0.000174 µM
17,COc1ccc(-c2cc(-c3ccc(S(=O)(=O)N[C@H](CC(=O)O)C(=O)O)cc3)no2)cc1F [Example C-118],0.000904 µM

row,Compound,IC50
1,CC(C)[C@@H](NS(=O)(=O)c1ccc(-c2cc(-c3ccc(Br)cc3)no2)cc1)C(=O)O [Example A-24],0.000806 µM
2,O=C(O)C[C@@H](NS(=O)(=O)c1ccc(-c2cc(-c3ccc(Cl)c(F)c3)on2)cc1)C(=O)O [Example C-117],0.000967 µM
3,CCC(C)[C@H](NS(=O)(=O)c1ccc(-c2cc(-c3ccc(F)cc3)on2)cc1)C(=O)O (stereo partly drawn) [Example C-106],0.000781 µM
4,CC(C)[C@H](NS(=O)(=O)c1ccc(-c2cc(-c3ccc(Cl)cc3)no2)cc1)C(=O)O [Example A-23],0.00086 µM
5,CC(C)C[C@H](NS(=O)(=O)c1ccc(-c2cc(-c3ccc(Cl)c(F)c3)on2)cc1)C(=O)O [Example C-82],0.000233 µM
6,Cc1ccc(-c2cc(-c3ccc(S(=O)(=O)N[C@H](C(=O)O)C(C)C)cc3)no2)cc1 [Example C-9],0.000409 µM
7,CC(C)C[C@H](NS(=O)(=O)c1ccc(-c2cc(-c3ccc(Cl)c(F)c3)no2)cc1)C(=O)O [Example A-81],0.000357 µM
8,COc1ccc(-c2cc(-c3ccc(S(=O)(=O)N[C@H](C(=O)O)C(C)C)cc3)on2)cc1F [Example A-39],0.000708 µM
9,CC(C)[C@H](NS(=O)(=O)c1ccc(-c2cc(-c3ccc(Cl)c(F)c3)no2)cc1)C(=O)O [Example A-41],0.00047 µM
10,CCC(C)[C@H](NS(=O)(=O)c1ccc(-c2cc(-c3ccc(F)c(F)c3)on2)cc1)C(=O)O (stereo partly drawn) [Example C-108],0.000525 µM
11,CCCc1ccc(-c2cc(-c3ccc(S(=O)(=O)N[C@@H](CC(C)C)C(=O)O)cc3)no2)cc1 [Example C-58],0.000216 µM
12,CC(C)[C@@H](NS(=O)(=O)c1ccc(-c2cc(-c3ccc(C(F)(F)F)cc3)no2)cc1)C(=O)O [Example A-20],0.000723 µM
13,CC(C)[C@H](NS(=O)(=O)c1ccc(-c2cc(-c3ccc(Br)cc3)no2)cc1)C(=O)O [Example A-25],0.000518 µM
14,CC(C)[C@H](NS(=O)(=O)c1ccc(-c2cc(-c3ccc(C(F)(F)F)cc3)no2)cc1)C(=O)O [Example A-21],0.000608 µM
15,CC(C)[C@@H](NS(=O)(=O)c1ccc(-c2cc(-c3ccc(Cl)c(Cl)c3)on2)cc1)C(=O)O [Example C-40],0.000575 µM
16,CC(C)C[C@H](NS(=O)(=O)c1ccc(-c2cc(-c3ccc(Cl)cc3)on2)cc1)C(=O)O [Example C-68],0.000295 µM
17,Cc1ccc(-c2cc(-c3ccc(S(=O)(=O)N[C@@H](CC(C)C)C(=O)O)cc3)no2)cc1F [Example C-84],0.000245 µM

# Continued, values first:
row,IC50,Compound
1,0.000205 µM,CC(C)[C@H](NS(=O)(=O)c1ccc(-c2cc(-c3ccc(Br)cc3)on2)cc1)C(=O)O [Example C-23]
2,0.000899 µM,Cc1ccc(-c2cc(-c3ccc(S(=O)(=O)N[C@@H](C)C(=O)O)cc3)no2)cc1 [Example C-2]
3,0.000245 µM,Cc1ccc(-c2cc(-c3ccc(S(=O)(=O)N[C@@H](C(=O)O)C(C)C)cc3)no2)cc1F [Example C-38]
4,0.000218 µM,CC(C)C[C@H](NS(=O)(=O)c1ccc(-c2cc(-c3ccc(Br)cc3)on2)cc1)C(=O)O [Example C-66]
5,0.000676 µM,CCc1ccc(-c2cc(-c3ccc(S(=O)(=O)N[C@@H](CC(C)C)C(=O)O)cc3)no2)s1 [Example C-77]
6,0.000559 µM,Cc1ccc(-c2cc(-c3ccc(S(=O)(=O)N[C@@H](C(=O)O)C(C)C)cc3)no2)cc1 [Example C-8]
7,0.000203 µM,CC(C)C[C@H](NS(=O)(=O)c1ccc(-c2cc(-c3ccc(OC(F)(F)F)cc3)on2)cc1)C(=O)O [Example C-71]
8,0.000343 µM,Cc1ccc(-c2cc(-c3ccc(S(=O)(=O)N[C@@H](CC(C)C)C(=O)O)cc3)no2)cc1 [Example C-54]
9,0.000754 µM,CC(C)[C@H](NS(=O)(=O)c1ccc(-c2cc(-c3ccc(F)c(F)c3)on2)cc1)C(=O)O [Example C-50]
10,0.000256 µM,CCC(C)[C@H](NS(=O)(=O)c1ccc(-c2cc(-c3ccc(C)cc3)on2)cc1)C(=O)O (stereo partly drawn) [Example C-94]
11,0.000889 µM,C[C@H](NS(=O)(=O)c1ccc(-c2cc(-c3ccc(OC(F)(F)F)cc3)no2)cc1)C(=O)O [Example A-6]
12,0.000257 µM,CCC(C)[C@H](NS(=O)(=O)c1ccc(-c2cc(-c3ccc(Cl)cc3)on2)cc1)C(=O)O (stereo partly drawn) [Example C-107]
13,0.000379 µM,CCC(C)[C@H](NS(=O)(=O)c1ccc(-c2cc(-c3ccc(Cl)c(F)c3)no2)cc1)C(=O)O (stereo partly drawn) [Example A-104]
14,0.000547 µM,CCc1ccc(-c2cc(-c3ccc(S(=O)(=O)N[C@@H](C)C(=O)O)cc3)no2)cc1 [Example C-3]
15,0.000592 µM,CCC(C)[C@H](NS(=O)(=O)c1ccc(-c2cc(-c3ccc(C(F)(F)F)cc3)no2)cc1)C(=O)O (stereo partly drawn) [Example A-102]
16,0.000336 µM,CC(C)[C@H](NS(=O)(=O)c1ccc(-c2cc(-c3ccc(Cl)cc3)on2)cc1)C(=O)O [Example C-21]
17,0.000432 µM,COc1ccc(-c2cc(-c3ccc(S(=O)(=O)N[C@@H](CC(C)C)C(=O)O)cc3)no2)cc1 [Example C-64]
18,0.000877 µM,Cc1ccc(-c2cc(-c3ccc(S(=O)(=O)N[C@H](Cc4ccccc4)C(=O)O)cc3)no2)cc1 [Example C-122]
19,0.00076 µM,CCc1ccc(-c2cc(-c3ccc(S(=O)(=O)N[C@H](Cc4ccccc4)C(=O)O)cc3)no2)cc1 [Example C-123]

# Target: T2, MMP-8 (Homo sapiens, UniProt P22894)
# T2 construct: In regard to MMP-8, catalytic domain (^99Phe˜^262Gly) was amplified with PCR; His-tag; enterokinase digestion-site; made in house
# Assay: Assay for inhibitory activities on MMPs (fluorogenic MOCAc peptide substrate): MMP-8
# Type: biochemical
# Details: catalytic domain 99Phe-262Gly
# Excerpt: In regard to MMP-8, catalytic domain (^99Phe˜^262Gly) was amplified with PCR using commercial available Human Bone Marrow cDNA. This was cloned in Escherichia. coli expression vector pTrc99AHE inserted with His-tag sequence and enterokinase digestion-site, induced and expressed by IPTG (Isdpropyl-β-D-thiogalactopyranoside) and expressed in a insoluble fraction (Thau F. Ho, M. Walid Qoronfleh, Robert C. Wahl, Trica A. Pulvino, Karen J. Vavra, Joe Falvo, Tracey M. Banks, Patricia G. Brake and Richard B. Ciccarelli: Gene expression, purification and characterization of recombinant human neutrophil collagenase. Gene 146, (1994) 297-301, Prepared by the a improved method of this material). Isolation of MMP-8 from an insoluble fraction was carried out by dissolving in modifier (6M urea) by a usual method and purification with metal chelate chromatography. And then removing modifier (6M urea) with dialysis and refolding of the enzyme spontaneously gave activated MMP-8.
# as §1, §2
# T2 sequence (P22894 99-262): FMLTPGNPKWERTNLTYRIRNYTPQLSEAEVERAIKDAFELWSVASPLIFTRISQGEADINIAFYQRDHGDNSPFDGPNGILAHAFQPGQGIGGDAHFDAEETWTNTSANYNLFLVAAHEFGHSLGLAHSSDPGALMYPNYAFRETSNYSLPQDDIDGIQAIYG
row,Compound,IC50
1,Cc1ccc(-c2cc(-c3ccc(S(=O)(=O)N[C@H](CC(=O)O)C(=O)O)cc3)no2)s1 [Example C-116],0.0023 µM
2,Cc1ccc(-c2cc(-c3ccc(S(=O)(=O)N[C@@H](C(=O)O)C(C)(C)C)cc3)no2)s1 [Example C-110],0.00252 µM
3,CCC(C)[C@H](NS(=O)(=O)c1ccc(-c2cc(-c3ccc(Cl)s3)on2)cc1)C(=O)O (stereo partly drawn) [Example C-100],0.00111 µM
4,Cc1ccc(-c2cc(-c3ccc(S(=O)(=O)N[C@H](CC(C)C)C(=O)O)cc3)no2)s1 [Example C-74],0.00416 µM

# Source: patent publication US7825146B2, “Sulfonamide derivative having isoxazole ring” (Shionogi & Co., Ltd., priority 2003, dated 2010)
